{
  "source": "patent US20170027936A1",
  "about": "“ABL1 INHIBITOR FOR TREATING AND PREVENTING OCULAR NEOVASCULARISATION” (UCL BUSINESS PLC, priority 2014, published 2017)",
  "key": {"[1]": {"system": "BCR-ABL-expressing Ba/F3 and bone marrow cells", "settings": "murine xenograft models of leukaemia; cited from earlier work"}, "[2]": {"system": "PXN Y118 phosphorylation", "assay": "PXN Y118 phosphorylation in HDMEC plated on FN (immunofluorescence, immunoblotting)", "type": "cell-based, human", "settings": "10 μM Imatinib 30 min before and during plating on FN, versus vehicle", "protocol": "(§1) (A-C) ABL1 kinase activity is essential for PXN phosphorylation. […] In (A), pPXN Y118 (green) is shown together with phalloidin (red) and DAPI (blue) on the left hand side and as single channel in grey scale on the right hand side; scale bar 20 μm. pPXN pixel intensity was quantified in (B) and expressed as fold change in knockdown cells at the indicated time points relative to control cells at 0 min; mean±SEM of four independent experiments.\n(§2) Human microvascular dermal EC (HDMEC; Promocell, UK) and human umbilical vein EC (HUVEC; Promocell) were cultured in standard conditions and transfected with Lipofectamine RNAIMAX (Life Technologies). Primary mouse lung EC (MLEC) were isolated from mice between one and two months of age by magnetic-activated cell sorting (MACS) with PECAM antibodies (BD Biosciences, UK). […] In some experiments, cells were stimulated with VEGF165 50 ng/ml for the indicated times.\n(§3) Immunofluorescence staining of HDMEC and p6 mouse retinas was analysed with a L5M710 laser scanning confocal microscope."}, "[3]": {"system": "retinal vasculature", "assay": "Physiological retinal angiogenesis in the perinatal mouse (IB4/FN labelled P6 retinal flatmounts)", "type": "in vivo", "excerpt": "FIG. 7 ABL1 is essential for vessel spouting and branching in the retina. […] Vascular extension from the retinal centre to the vascular front is indicated with red arrows. […] Asterisks indicate statistical significance: **P<0.01.\n(C,D) Reduced astrocyte, but not vascular FN deposition in Imatinib-treated retinas. […] Note reduced FN staining of astrocyte processes ahead of the vascular front (A), whilst the vasculature was prominently stained for FN.\nExamples of abnormally long and wide sprouts without lateral protrusions or connections are indicated with arrows. (G) Quantification of filopodial bursts per vascular front length as an indicator of tip cell number, and quantification of branchpoints behind the vascular front; vehicle, n=7; P4/5, n=3; P2-5, n=4; ***P<0.001 versus control; ^♯P<0.05 for P4/5 versus P2-5treatment.\nAll animal procedures were performed in accordance with institutional and UK Home Office guidelines. We used C57/616 wild type mice (Charles River Laboratories), littermate wild type and heterozygous Nrp/-null mutants and mice carrying two floxed conditional null Nrp1 alleles (Nrp1^fl/fl) combined with Pdgfb-iCre-ERT2-Egfp with codon-improved Cre on a C57/616 background. For tamoxifen-induction of CRE-mediated recombination, 0.2 mg of tamoxifen (SIGMA) dissolved in peanut oil to 2 mg/ml was administered via intraperitoneal injection into pups at the indicated times. […] OIR was induced as previously described. Briefly, nursing dams and their pups were maintained at 75±3% O2 in an oxygen supply chamber from P7 to P12; dams were rested in room air for 1 h each day. Dams and pups were returned to room air on P12 and the pups culled on P17 to isolate retinas for immunolabelling; the size of the avascular and neovascular areas was determined with Photoshop CS4 (Adobe Inc.) in images acquired with a SZX16 stereofluorescent microscope (Olympus) equipped with a digital camera (Hamamatsu Photonics Ltd).\nas §3"}, "[4]": {"system": "HDMEC", "assay": "Actin remodelling and cell spreading of HDMEC plated on FN (phalloidin staining)", "type": "cell-based, human", "settings": "Imatinib-treated", "protocol": "as §1, §2, §3"}, "[5]": {"system": "pathological angiogenesis in the retina", "settings": "OIR, P17 retina, daily Imatinib after return to normoxia (P13-16), versus vehicle"}, "[6]": {"settings": "P6 retina, Imatinib P2 to P5, versus vehicle"}, "[7]": {"settings": "P6 retina, Imatinib on P4/5 or P2-5, versus vehicle"}, "[8]": {"settings": "P6 retina, Imatinib-treated mice"}},
  "note": "Entries after “also recorded” stand apart in the source; their conditions may differ.",
  "data": [
    {"smiles": "O=C(NCCO)c1cccc(-c2cc(Nc3ccc(OC(F)(F)F)cc3)ncn2)c1", "note": "[GNF-5, N-(2-Hydroxyethyl)-3-(6-(4(trifluoromethoxy)phenylamino)pyrimidin-4-yl)benzamide]", "values": [
      {"measurement": "suppression of proliferation of BCR-ABL-expressing cells in vivo", "setting": "[1]", "value": "exhibits in vivo efficacy in suppressing the proliferation"}
    ]},
    {"smiles": "Cc1ccc(NC(=O)c2ccc(CN3CCN(C)CC3)cc2)cc1Nc1nccc(-c2cccnc2)n1", "note": "[Imatinib]", "values": [
      {"measurement": "PXN Y118 phosphorylation (pixel intensities in immunostains and immunoblots)", "setting": "[2]", "value": "significantly reduced"},
      {"measurement": "FN pixel intensity in IB4-positive (vascular) areas", "setting": "[3]; [6]", "value": "no difference; also recorded: not significantly (ns) changed"},
      {"measurement": "astrocyte FN deposition ahead of the vascular front", "setting": "[3]; [6]", "value": "significantly reduced"},
      {"measurement": "vascular extension across the retina", "setting": "[3]; [6]", "value": "small, but significant reduction; also recorded: Reduced"},
      {"measurement": "branchpoints behind the vascular front", "setting": "[3]; [7]", "value": "significant and lmatinib dose-dependent reduction; also recorded: Dose-dependent decrease"},
      {"measurement": "tip cells (filopodial bursts at the vascular front)", "setting": "[3]; [7]", "value": "significantly fewer"},
      {"measurement": "filopodia morphology at the vascular front", "setting": "[3]; [8]", "value": "thin, wavy and misoriented"},
      {"measurement": "interaction of tip cells with microglia", "setting": "[3]; [8]", "value": "not prevented"},
      {"measurement": "sprout morphology at the vascular front", "setting": "[3]; [8]", "value": "longer and wider, with fewer lateral protrusions connecting to neighbouring sprouts"},
      {"measurement": "vascular network density", "setting": "[3]; P6 retinal flatmounts, Imatinib versus vehicle", "value": "reduced"},
      {"measurement": "cell spreading", "setting": "[4]", "value": "reduced"},
      {"measurement": "stress fibres / cortical actin (phalloidin)", "setting": "[4]", "value": "few stress fibres, but abundant cortical actin"},
      {"measurement": "formation of neovascular tufts (NV area)", "setting": "[5]", "value": "effectively inhibited; also recorded: reduced"}
    ]}
  ]
}
